The text below walks through data of patent US7763602B2, “Pyrrole derivatives as antimycobacterial compounds” (priority 2002, dated 2010).

SMILES strings stand for the structures. Converted amounts (≈) assume the structure as drawn. Read-outs that look alike come from different tables or passages of the source.

For data set [1], the system named is M. tuberculosis H37Rv ATCC 27294. The experiment in a line: In vitro growth inhibition assay, BACTEC 460 TB system. Format: cell-based, Mycobacterium tuberculosis. The following applies: final concentration 6.25 μg/ml. Also noted: key: +: If ΔGI of test vial is less than that of the control vial the culture was sensitive to the test compound.
The test system of the next data set is M. tuberculosis 27294. The experiment in a line: In vitro agar dilution assay (MIC), reference strain. Format: cell-based, Mycobacterium tuberculosis. The following applies: Mycobacterium tuberculosis, 27294, Table I, read-out: MIC (μg/ml) against M. tuberculosis-27294.
In data set [2] the test system is M. tuberculosis clinical isolates, sensitive. The experiment in a line: microbe, parasite or virus in culture. As to conditions: Mycobacterium tuberculosis. Format: cell-based, Mycobacterium tuberculosis.
The test system of data set [3] is M. avium-intracellulare complex. The experiment in a line: In vitro agar dilution assay (MIC), M. avium-intracellulare complex. Format: cell-based. As to conditions: Mycobacterium avium-intracellulare; Table II; 13 strains; read-out: MIC (μg/ml) M. avium-intracellulare complex (n = 13). In general terms: In agar dilution the substance is mixed into plates at graded concentrations.

In the next data set the test system is M. fortuitum. Description: In vitro agar dilution assay (MIC), M. fortuitum. Format: cell-based, Mycobacterium fortuitum. The following applies: Mycolicibacterium fortuitum; Table II; 8 strains; read-out: MIC (μg/ml) M. fortuitum (n = 8).
The test system of a further data set is M. kansasii. Description: In vitro agar dilution assay (MIC), M. kansasii. The format is cell-based. As to conditions: Mycobacterium kansasii; Table II; 2 strains; read-out: MIC (μg/ml) M. kansasii (n = 2).
A short description of data set [4]: Acute toxicity study in mice. Format: in vivo, Swiss albino mice. On the procedure: Compound No. 3 of formula (I) was administered, as a single oral dose, in Swiss albino mice. Two dose levels of 500 and 2000 mg/kg were employed. […] Therefore LD0 was >2000 mg/kg by oral route in mice. […] Similarly in compound No. 12 of Formula I, LD0 was >500 mg/kg by oral route in mice.

Data set [5] deals with M. tuberculosis H37Rv ATCC 27294. The experiment in a line: Murine model of pulmonary tuberculosis, treated 01 day post-infection. The following applies: Table III; for Mean Log10 No. of CFU Lung / Mean Log10 No. of CFU Spleen: 5 day/week for 4 week, treatment from 1 day after infection; for Mean Log10 no. of reduction Lung / Mean Log10 no. of reduction Spleen: difference from early controls.

[6] abbreviates: read-out: MIC (μg/ml) M. tuberculosis Sensitive (n = 17).
Setting [7] is: read-out: MIC (μg/ml) against Clinical isolates Sensitive.

As to `Cc1c(CN2CCN(c3cccc(C(F)(F)F)c3)CC2)cc(-c2ccc(Cl)cc2)n1-c1ccc(Cl)cc1` [Compound No. 3, 1-{[1,5-bis(4-chlorophenyl)-2-methylpyrrol-3-yl]methyl}-4-(3-trifluoromethylphenyl)piperazine], the “Growth inhibition of M. tuberculosis 27294” value (shortened to “Growth inhibition”) in [1] was “+”. The MIC was 0.125 µg/mL (≈ 0.23 µM) in the data set with M. tuberculosis 27294; 0.125 to 0.25 µg/mL (≈ 0.23 to 0.459 µM) in [2] (setting [6]); 0.125 to 0.25 µg/mL (≈ 0.23 to 0.459 µM) in data set [2] (setting [7]); 4 to 8 µg/mL (≈ 7.35 to 14.7 µM) in data set [3]; 4 to 8 µg/mL (≈ 7.35 to 14.7 µM) in the data set on M. fortuitum; 4 µg/mL (≈ 7.35 µM) with M. kansasii. Further, the “Clinical symptoms or mortality” value in data set [4] (single oral dose 500 and 2000 mg/kg, Swiss albino mice, observed for 14 days) is recorded as “No clinical symptom or mortality was observed”. In addition, the “Pathological changes in organs” value in data set [4] (single oral dose 500 and 2000 mg/kg, mice sacrificed on day 15) was “no pathological changes were seen in any organ”. For the same molecule, in data set [4] (single oral dose, mice, observed for 14 days), the LD0 is > 2000 mg/kg. Besides, the “Mean Log10 No. of CFU Lung” value in [5] (12.5 mg/kg gavage) came to 2.63; in [5] (25 mg/kg gavage) it was 2.13; in data set [5] (50 mg/kg gavage) it was 1.97. For the same molecule, the “Mean Log10 No. of CFU Spleen” value in data set [5] (12.5 mg/kg gavage) was determined as 2.6; in [5] (25 mg/kg gavage) it was 2.07; in [5] (50 mg/kg gavage), 1.94. The results for the “Mean Log10 no. of reduction Lung” value in data set [5] (12.5 mg/kg), in data set [5] (25 mg/kg) and in data set [5] (50 mg/kg) were 1.85, 2.35 and 2.51, respectively. Further, the “Mean Log10 no. of reduction Spleen” value was 2.03 in data set [5] (12.5 mg/kg), 2.29 in data set [5] (25 mg/kg) and 2.64 in data set [5] (50 mg/kg).

What is called melting point is the temperature of the solid-liquid transition. In turn, `Cc1c(CN2CCN(c3ncccn3)CC2)cc(-c2ccc(Cl)cc2)n1-c1ccc(Cl)cc1` [compound 5, 1-{[1,5-bis(4-chlorophenyl)-2-methylpyrrol-3-yl]methyl}-4-(2-pyrimidyl) piperazine] displayed a melting point of 184 to 186 °C. In data set [1], the “Growth inhibition” value is given as “+”. In addition, the MIC with M. tuberculosis 27294 is 0.25 µg/mL (≈ 0.523 µM). Further, in data set [2] (setting [6]), the MIC was in the range of 0.5 to 1 µg/mL (≈ 1.05 to 2.09 µM). Further, the MIC in data set [2] (setting [7]) fell in the range of 0.5 to 1 µg/mL (≈ 1.05 to 2.09 µM). In addition, in data set [3], the MIC is 4 to 8 µg/mL (≈ 8.36 to 16.7 µM). Also, the MIC in the data set with M. fortuitum is 8 to 16 µg/mL (≈ 16.7 to 33.4 µM). In addition, in the data set on M. kansasii, the MIC is 8 µg/mL (≈ 16.7 µM).

For `COc1ccccc1N1CCN(Cc2cc(-c3ccc(Cl)cc3)n(-c3ccc(Cl)cc3)c2C)CC1` [Compound No. 2, 1-{[1,5-bis(4-chlorophenyl)-2-methylpyrrol-3-yl]methyl}-4-(2-methoxyphenyl) piperazine], in data set [1], the “Growth inhibition” value was “+”. Also, the MIC in the data set with M. tuberculosis 27294 is 0.25 µg/mL (≈ 0.494 µM); in data set [2] (setting [6]), 0.125 to 0.25 µg/mL (≈ 0.247 to 0.494 µM); in data set [2] (setting [7]) it was 0.125 to 0.25 µg/mL (≈ 0.247 to 0.494 µM); in data set [3], 4 to 8 µg/mL (≈ 7.9 to 15.8 µM); in the data set on M. fortuitum it was 8 to 16 µg/mL (≈ 15.8 to 31.6 µM); in the data set with M. kansasii it was 8 µg/mL (≈ 15.8 µM).
